# In PubChem BioAssay (NCI):
#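 Protocol summary: plate cells (96-well), add compound at 5 concentrations, incubate 48 h, interpolate endpoints linearly. GI50 = concentration required for 50% inhibition of growth. TGI marks complete inhibition of growth.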
# Columns and labels:
# Assay in all cases: inhibition of tumour cell growth, NCI panel, 48 h
# [1] = test system: OVCAR-5 ovarian
# [2] = test system: COLO 205 colon
# [3] = test system: SF-268 CNS
# [4] = test system: CAKI-1 renal
# [5] = test system: DU-145 prostate
# [6] = test system: SK-MEL-5 melanoma
# [7] = test system: NCI-H226 lung
# [8] = test system: MCF7 breast
# [9] = test system: T-47D breast
# [10] = test system: NCI-H460 lung
# [11] = test system: OVCAR-3 ovarian
# [12] = test system: MDA-MB-231 breast
# [13] = test system: SN12C renal
# [14] = test system: RPMI-8226 leukemia
# [15] = test system: LOX IMVI melanoma
# [16] = test system: UACC-257 melanoma
# [17] = test system: 786-0 renal
# [18] = test system: BT-549 breast
# [19] = test system: MALME-3M melanoma
# [20] = test system: SK-MEL-28 melanoma
# [21] = test system: HCT-116 colon
# [22] = test system: K-562 leukemia
# [23] = test system: HCC-2998 colon
# [24] = test system: A549 NSCLC
# [25] = test system: OVCAR-4 ovarian
# [26] = test system: HOP-92 NSCLC
# [27] = test system: KM12 colon
# [28] = test system: MOLT-4 leukemia
# [29] = test system: EKVX NSCLC
# [30] = test system: A498 renal
# [31] = test system: NCI-H23 lung
# [32] = test system: UACC-62 melanoma
# [33] = test system: HT29 colon
# [34] = test system: HL-60(TB) leukemia
# [35] = test system: TK-10 renal
# [36] = test system: U251 CNS
# [37] = test system: HCT-15 colon
# [38] = test system: SK-MEL-2 melanoma
# [39] = test system: SNB-75 CNS
# [40] = test system: NCI-H522 lung
# [41] = test system: OVCAR-8 ovarian
# [42] = test system: SNB-19 CNS
# [43] = test system: PC-3 prostate
# [44] = test system: MDA-MB-435
# [45] = test system: SW-620 colon
# [46] = test system: HS 578T breast
# [47] = test system: SF-295 CNS
# [48] = test system: SF-539 CNS
# [49] = test system: SK-OV-3 ovarian
# [50] = test system: IGROV1 ovarian
# [51] = test system: UO-31 renal
# [52] = test system: NCI/ADR-RES ovarian
# [53] = test system: M14 melanoma
# [54] = test system: CCRF-CEM leukemia
# [55] = test system: ACHN renal
# [56] = test system: HOP-62 NSCLC
# [57] = test system: RXF 393 renal
smiles,measurement,setting,value
Cc1cccc(C)c1NC(=O)/C(Cc1nc2ccc([N+](=O)[O-])cc2[nH]c1=O)=N\NC(N)=O,TGI,[1],> 100 µM
same,TGI,[2],> 100 µM
same,TGI,[3],> 100 µM
same,TGI,[4],> 100 µM
same,TGI,[5],> 100 µM
same,TGI,[6],> 100 µM
same,TGI,[7],> 100 µM
same,TGI,[8],> 100 µM
same,TGI,[9],> 100 µM
same,TGI,[10],> 100 µM
same,TGI,[11],> 100 µM
same,TGI,[12],> 100 µM
same,TGI,[13],> 100 µM
same,TGI,[14],> 100 µM
same,TGI,[15],> 100 µM
same,TGI,[16],> 100 µM
same,TGI,[17],> 100 µM
same,TGI,[18],> 100 µM
same,TGI,[19],> 100 µM
same,TGI,[20],> 100 µM
same,TGI,[21],> 100 µM
same,TGI,[22],> 100 µM
same,TGI,[23],> 100 µM
same,TGI,[24],> 100 µM
same,TGI,[25],> 100 µM
same,TGI,[26],> 100 µM
same,TGI,[27],> 100 µM
same,TGI,[28],> 100 µM
same,TGI,[29],> 100 µM
same,TGI,[30],> 100 µM
same,TGI,[31],> 100 µM
same,TGI,[32],> 100 µM
same,TGI,[33],> 100 µM
same,TGI,[34],> 100 µM
same,TGI,[35],> 100 µM
same,TGI,[36],> 100 µM
same,TGI,[37],> 100 µM
same,TGI,[38],> 100 µM
same,TGI,[39],> 100 µM
same,TGI,[40],> 100 µM
same,TGI,[41],> 100 µM
same,TGI,[42],> 100 µM
same,TGI,[43],> 100 µM
same,TGI,[44],> 100 µM
same,TGI,[45],> 100 µM
same,TGI,[46],> 100 µM
same,TGI,[47],> 100 µM
same,TGI,[48],> 100 µM
same,TGI,[49],> 100 µM
same,TGI,[50],> 100 µM
same,TGI,[51],> 100 µM
same,TGI,[52],> 100 µM
same,TGI,[53],> 100 µM
same,TGI,[54],> 100 µM
same,TGI,[55],> 100 µM
COC(=O)C(N)CSC(c1ccccc1)(c1ccccc1)c1ccccc1 (stereo not drawn),GI50,[1],3.84 µM
same,TGI,[1],> 100 µM
same,GI50,[2],2.15 µM
same,TGI,[2],> 100 µM
same,GI50,[3],1.04 µM
same,TGI,[3],> 100 µM
same,GI50,[4],5.51 µM
same,TGI,[4],> 100 µM
same,GI50,[5],3.26 µM
same,TGI,[5],> 100 µM
same,GI50,[6],0.538 µM
same,TGI,[6],26.9 µM
same,GI50,[7],5.38 µM
same,TGI,[7],> 100 µM
same,GI50,[8],0.445 µM
same,TGI,[8],> 100 µM
same,GI50,[9],4.62 µM
same,TGI,[9],> 100 µM
same,GI50,[10],2.42 µM
same,TGI,[10],43.8 µM
same,GI50,[11],2.97 µM
same,TGI,[11],44.8 µM
same,GI50,[12],1.62 µM
same,TGI,[12],25.4 µM
same,GI50,[13],0.863 µM
same,TGI,[13],> 100 µM
same,GI50,[14],0.676 µM
same,TGI,[14],28.5 µM
same,GI50,[15],4.48 µM
same,TGI,[15],> 100 µM
same,GI50,[17],4.23 µM
same,TGI,[17],86.5 µM
same,GI50,[18],2.29 µM
same,TGI,[18],53.3 µM
same,GI50,[19],4.7 µM
same,TGI,[19],74 µM
same,GI50,[20],3.14 µM
same,TGI,[20],> 100 µM
same,GI50,[21],0.418 µM
same,TGI,[21],34.4 µM
same,GI50,[22],0.63 µM
same,TGI,[22],> 100 µM
same,GI50,[23],2.1 µM
same,TGI,[23],29.9 µM
same,GI50,[24],2.93 µM
same,TGI,[24],> 100 µM
same,GI50,[25],15.5 µM
same,TGI,[25],> 100 µM
same,GI50,[26],0.436 µM
same,TGI,[26],13.2 µM
same,GI50,[27],2.88 µM
same,TGI,[27],53.5 µM
same,GI50,[28],4 µM
same,TGI,[28],> 100 µM
same,GI50,[30],0.629 µM
same,TGI,[30],54 µM
same,GI50,[31],4.45 µM
same,TGI,[31],> 100 µM
same,GI50,[32],2.18 µM
same,TGI,[32],> 100 µM
same,GI50,[33],3.36 µM
same,TGI,[33],59.6 µM
same,GI50,[34],1.82 µM
same,TGI,[34],8.48 µM
same,GI50,[35],7.04 µM
same,TGI,[35],83.5 µM
same,GI50,[36],0.61 µM
same,TGI,[36],> 100 µM
same,GI50,[37],2.7 µM
same,TGI,[37],> 100 µM
same,GI50,[56],48.9 µM
same,TGI,[56],> 100 µM
same,GI50,[38],0.493 µM
same,TGI,[38],5.72 µM
same,GI50,[39],3.68 µM
same,TGI,[39],41.6 µM
same,GI50,[40],0.334 µM
same,TGI,[40],2.22 µM
same,GI50,[41],2.53 µM
same,TGI,[41],> 100 µM
same,GI50,[42],1.58 µM
same,TGI,[42],> 100 µM
same,GI50,[43],1.72 µM
same,TGI,[43],> 100 µM
same,GI50,[44],0.247 µM
same,TGI,[44],0.644 µM
same,GI50,[45],0.679 µM
same,TGI,[45],> 100 µM
same,GI50,[46],0.512 µM
same,TGI,[46],15 µM
same,GI50,[47],2.89 µM
same,TGI,[47],> 100 µM
same,GI50,[48],0.399 µM
same,TGI,[48],3.53 µM
same,GI50,[49],0.607 µM
same,TGI,[49],> 100 µM
same,GI50,[50],9.86 µM
same,TGI,[50],> 100 µM
same,GI50,[51],9.93 µM
same,TGI,[51],> 100 µM
same,GI50,[57],0.303 µM
same,TGI,[57],11.7 µM
same,GI50,[52],8.81 µM
same,TGI,[52],73.5 µM
same,GI50,[54],0.636 µM
same,TGI,[54],> 100 µM
same,GI50,[55],0.922 µM
same,TGI,[55],> 100 µM
